Measurements published in the NIST ThermoML archive (doi:10.1016/j.jct.2013.08.021).

Columns and labels:
[1] = for viscosity / speed of sound / mass density: 101 kPa, Liquid; for viscosity: Capillary tube (Ostwald / Ubbelohde) method; for speed of sound: Sing-around technique in a fixed-path interferometer; for mass density: Vibrating tube method
[2] = refractive index (Na D-line) (dimensionless); conditions: 101 kPa, Liquid, Standard Abbe refractometry
[3] = refractive index (Na D-line) (dimensionless); xn = mol fraction of the nth substance listed; conditions: 101 kPa, Liquid, Standard Abbe refractometry
[4] = xn = mol fraction of the nth substance listed; conditions: 101 kPa, Liquid; for speed of sound: Sing-around technique in a fixed-path interferometer; for mass density: Vibrating tube method

CCC[N+]1(C)CCCC1.O=S(=O)([N-]S(=O)(=O)C(F)(F)F)C(F)(F)F
Conditions	mass density, [1] [kg/m3]	refractive index, [2]	speed of sound, [1] [m/s]	viscosity, [1] [mPa·s]
293.15 K	1432.42	1.42208	1281.9	66.61
298.15 K	1427.86	1.42069	1270.6	49.35
303.15 K	1423.37	1.41928	1259	38.52
308.15 K	1418.86	1.41787	1249.1	30.93
313.15 K	1414.37	1.41644	1238.2	26.17
318.15 K	1409.9	1.415	1227.4	22.39
323.15 K	1405.45	1.41354	1216.9	19.31
328.15 K	1401.01	1.41212	1205.9	17.13
333.15 K	1396.59	1.41073	1196.4	15.07
338.15 K	1392.17	1.40932	1186.3	13.36
343.15 K	1387.77	1.40796	1176.2	11.93

Conditions	Normal melting temperature [°C]
[1], Crystal, DTA	11.00

CCC[N+]1(C)CCCC1.O=S(=O)([N-]S(=O)(=O)C(F)(F)F)C(F)(F)F + CCCO
Conditions	mass density, 298.15 K [kg/m3]	mass density, 303.15 K [kg/m3]	mass density, 308.15 K [kg/m3]	refractive index, 298.15 K	refractive index, 303.15 K	refractive index, 308.15 K	speed of sound, 298.15 K [m/s]	speed of sound, 303.15 K [m/s]	speed of sound, 308.15 K [m/s]
[3], x2 = 0	–	–	–	1.42064	1.41926	1.41782	–	–	–
[3], x2 = 0.0938	–	–	–	1.41963	1.41825	1.41678	–	–	–
[3], x2 = 0.1942	–	–	–	1.41841	1.41693	1.4155	–	–	–
[3], x2 = 0.3092	–	–	–	1.41669	1.41521	1.41375	–	–	–
[3], x2 = 0.3925	–	–	–	1.41523	1.41377	1.41227	–	–	–
[3], x2 = 0.5031	–	–	–	1.41287	1.41135	1.40984	–	–	–
[3], x2 = 0.6035	–	–	–	1.41013	1.40858	1.40703	–	–	–
[3], x2 = 0.6084	–	–	–	1.40996	1.40837	1.40681	–	–	–
[3], x2 = 0.6973	–	–	–	1.40685	1.40519	1.40364	–	–	–
[3], x2 = 0.8048	–	–	–	1.40163	1.40019	1.39885	–	–	–
[3], x2 = 0.8994	–	–	–	1.39494	1.39356	1.39205	–	–	–
[3], x2 = 0.9465	–	–	–	1.39023	1.38843	1.38653	–	–	–
[4], x2 = 0	1427.86	1423.26	1418.83	–	–	–	1270.6	1259.5	1248.6
[4], x2 = 0.0938	1411.16	1406.64	1402.12	–	–	–	1265.5	1254.3	1243.4
[4], x2 = 0.1942	1390.36	1385.82	1381.28	–	–	–	1259.2	1248	1236.8
[4], x2 = 0.3092	1361.8	1357.24	1352.68	–	–	–	1250.8	1239.4	1228.1
[4], x2 = 0.3925	1336.96	1332.37	1327.8	–	–	–	1243.8	1232.2	1220.8
[4], x2 = 0.5031	1296.59	1291.99	1287.39	–	–	–	1233	1221.2	1209.4
[4], x2 = 0.6035	1249.57	1244.97	1240.35	–	–	–	1221.4	1209.3	1197.2
[4], x2 = 0.6084	1246.93	1242.32	1237.71	–	–	–	1220.8	1208.7	1196.6
[4], x2 = 0.6973	1192.26	1187.68	1183.08	–	–	–	1209.2	1196.7	1184.2
[4], x2 = 0.8048	1102.79	1098.29	1093.76	–	–	–	1194.6	1181.5	1168.3
[4], x2 = 0.8994	988.76	984.42	980.03	–	–	–	1187.7	1173.4	1159.1
[4], x2 = 0.9465	912.36	908.13	903.87	–	–	–	1192	1176.5	1161.2
